US11332438B2, “Creatine prodrugs, compositions and methods of use thereof” (Ultragenyx Pharmaceutical Inc., priority 2017, dated 2022)

Key:
[1] = Chemical stability in phosphate buffered saline (PBS); type: physicochemical; conditions: 50 μM prodrug
Experimental: (§1) Chemical stability of creatine prodrugs in phosphate buffered saline (PBS), simulated intestinal fluid (SIF) without pancreatin, simulated gastric fluid (SGF) without pepsin were determined by LC-UV, LC-CAD, LC-UV-CAD or LC-MS/MS as appropriate. Creatine prodrugs of the present disclosure (50 μM) were incubated at 37° C. according to described protocols and prodrug levels were compared between t=0, t=15, t=60, and t=120 mins by peak area ratio to determine the percentage remained at t=120 mins (2 h).
(§2) Protocol for PBS, SIF and SGF stability for screening:
(§3) Prodrugs (50 μM) were incubated in PBS, FaSSIF (Biorelevant) or FaSSGF (Biorelevant) at 37° C.

[2] = Chemical stability in simulated gastric fluid (SGF) without pepsin; type: physicochemical; conditions: 50 μM prodrug
Experimental: as §1, §2, §3

[3] = Liver microsome stability, human; type: in vitro ADME; conditions: liver microsomes, read-out: Microsome Stability Human t1/2
Experimental: (§4) The stabilities of creatine prodrugs can be evaluated in one or more in vitro systems using a variety of preparations following methods known in the art. Experimental conditions useful for the in vitro studies are described in Table 1. Prodrug is added to each preparation in triplicate. […]
(§5) Protocol for Microsomal Stability:
(§6) For reference compound, a 500 μM spiking solution was prepared: add 10 μL of 10 mM DMSO stock solution into 190 μL ACN. […] For test compound, a 5 mM spiking solution was prepared: add 10 μL of 10 mM DMSO stock solution into 10 μL ACN. […] NADPH stock solution (6 mM) was prepared by dissolving NADPH into buffer 0.1 M Potassium Phosphate buffer, 1.0 mM EDTA, pH 7.4. […] For 0-min, 135 μL of ACN containing IS was added to the wells of 0-min plate and then 15 μL of NADPH stock solution (6 mM) was added. 15 μL of NADPH stock solution (6 mM) was added to the samples designated as 0-, 5-, 10-, 20-, 30-min, 60-min; 15 μL of buffer 0.1 M Potassium Phosphate buffer, 1.0 mM EDTA, pH 7.4, was added to the samples designated as 60-min without NADPH. At 5-min, 10-min, 20-min, and 30-min, 60-min 135 μL of ACN containing IS was added to the wells of corresponding plates, respectively, to stop the reaction. […] 50 μL of the supernatant from each well was transferred into a 96-well sample plate containing 50 μL of ultra pure water (Millipore, ZMQS50FOI) and analyzed by LC/MS.

[4] = Plasma stability, human plasma; type: in vitro ADME; conditions: 37 °C, read-out: Plasma Stability Human t1/2
Experimental: as §4
(§7) Protocol for plasma stability for early screen macrocycles (Method A):
(§8) Frozen plasma was thawed by placing at 37° C. quickly and centrifuged at 3,000 rpm for 8 minutes to remove clots. Then the supernatant was pipetted and pooled as the plasma to be used in the experiment. The plasma was placed on ice until used. The test compounds and reference compounds spiking solution was prepared as a 2.5 mM test compounds spiking solution A: Add 20 μL of 10 mM test compounds stock solution to 60 μL DMSO. 0.1 mM Spiking solution B was prepared: Add 40 μL of spiking solution A to 960 μL of […] Sodium phosphate buffer with 0.5% BSA. […] For 0-min, 400 μL of ACN containing IS was added to the wells of 0-min plate and then 90 μL of plasma was added. […] 50 μL of the supernatant was transferred from each well into a 96-well sample plate containing 120 μL of ultra pure water (Millipore, ZMQS50F01) and analyzed by LC/MS.
(§9) Protocol for plasma stability (Method B):
(§10) The frozen plasma was thawed in a 37° C. water bath and then, if needed, adjusted to pH=7.4 then preheated in a 37° C. incubator. The test article was dissolved in 10% DMSO/water and spiked into plasma pre-plated into 96 well plates at a final concentration of 1 μM. Discrete incubations were performed at 37° C. and included 5 time points: t=0, 2, 5, 15, and 30 min. Samples were then crashed with 4× volume, ice cold 20% water/80% acetonitrile and spun at 4000 g for 10 mins. The supernatant was dried down and reconstituted with water and analyzed by LC-MS/MS. The half life in minute was calculated.

[5] = Plasma stability, mouse plasma; type: in vitro ADME; conditions: 37 °C, read-out: Plasma Stability Mouse t1/2
Experimental: as §4, §7, §8, §9, §10

[6] = Liver microsome stability, mouse; type: in vitro ADME; conditions: liver microsomes, read-out: Microsome Stability Mouse t1/2
Experimental: as §4, §5, §6

Row | SMILES | Chemical Stability PBS % T0 at 2 hours at 37 °C. ([1]; Table 2B) | Chemical Stability SGF, no enzyme % T0 at 2 hours at 37 °C. ([2]; Table 2B) | half-life at 10 μM ([3]; pH 7.4, Table 2A) | Chemical Stability PBS % T0 at 2 hours at 37 °C. ([1]; Table 2A) | half-life ([4]; Table 2A) | half-life ([5]; Table 2A) | Chemical Stability SGF, no enzyme % T0 at 2 hours at 37 °C. ([2]; Table 2A) | half-life at 10 μM ([6]; pH 7.4, Table 2A) | further results
1 | Cl.[2H]C([2H])([2H])N(CC(=O)OC(C)(C)C(F)(F)F)C(=N)NC(=O)CCCCCCCCCC [Compound 59] | 101% | 30% | – | – | – | – | – | – | –
2 | [2H]C([2H])([2H])N(CC(=O)[O-])C(=N)NC(=O)CCCCCCCCCC.[K+] [Compound 33] | – | – | 1.2 h | 85% | > 3 h | > 3 h | 79% | 1.77 h | –
3 | Cl.[2H]C([2H])([2H])N(CC(=O)OC(C)(C)C)C(=N)NC(=O)CCCCCCCCCC [Compound 44] | 107% | 95% | 0.15 h | 42% | 1.67 h | 0.133 h | 86% | < 0.0833 h | half-life at 10 μM ([3]; pH 7.4, Table 2B): 0.15 h; half-life at 10 μM ([6]; pH 7.4, Table 2B): < 0.0833 h
4 | [2H]C([2H])([2H])N(CC(=O)[O-])C(=N)NC(=O)CCCCCCC.[Li+] [Compound 37] | – | – | 1.9 h | – | > 3 h | > 3 h | – | > 2.42 h | –
5 | Cl.[2H]C([2H])([2H])N(CC(=O)OC(C)(C)C(F)(F)F)C(=N)NC(=O)CCCCCC [Compound 55] | 97% | 94% | – | – | – | – | – | – | –
6 | [2H]C([2H])([2H])N(CC(=O)OC(C)(C)C(C)C)C(=N)NC(=O)CCCCCC [Compound 60] | 101% | 99% | – | – | – | – | – | – | half-life at 10 μM ([3]; pH 7.4, Table 2B): < 0.0833 h; half-life ([4]; Table 2B): > 3 h; half-life ([5]; Table 2B): > 3 h; half-life at 10 μM ([6]; pH 7.4, Table 2B): < 0.0833 h
7 | [2H]C([2H])([2H])N1CC(=O)OCCCCCCCCCCCC(=O)NC1=N [Compound QQ, 5-imino-4-trideuteriomethyl-1-oxa-4,6-diazacyclooctadecane-2,7-dione] | – | – | – | – | – | – | – | – | half-life at 10 μM ([3]; pH 7.4, Table 2C): 0.15 h; Chemical Stability PBS % T0 at 2 hours at 37 °C. ([1]; Table 2C): 85%; Chemical Stability SGF, no enzyme % T0 at 2 hours at 37 °C. ([2]; Table 2C): 79%; half-life at 10 μM ([6]; pH 7.4, Table 2C): 0.0667 h
8 | [2H]C([2H])([2H])N(CC(=O)[O-])C(=N)NC(=O)CCCCCCCCCO.[Na+] [Compound 58] | – | – | – | – | – | – | – | – | half-life at 10 μM ([3]; pH 7.4, Table 2B): > 1.5 h; half-life ([4]; Table 2B): > 3 h; half-life ([5]; Table 2B): > 3 h; half-life at 10 μM ([6]; pH 7.4, Table 2B): > 1.5 h
9 | Cl.[2H]C([2H])([2H])N(CC(=O)OCc1oc(=O)oc1C)C(=N)NC(=O)CCCCCCCCCC [Compound 48] | – | – | – | 97% | – | – | 98% | – | –
10 | [2H]C([2H])([2H])N(CC(=O)[O-])C(=N)NC(=O)CCCC/C=C\CCCCCCCCCCC.[Na+] [Compound 25] | – | – | > 2.42 h | 89% | > 3 h | > 3 h | 72% | > 2.42 h | –
11 | Cl.[2H]C([2H])([2H])N1CC(=O)OC(C)CCCCCCCCCC(=O)NC1=N (stereo not drawn) [Compound K, 5-imino-4-trideuteriomethylguanidino-17-dimethyl-1-oxa-4,6-diazacycloheptadecane-2,7-dione Dihydrochloride] | – | – | – | – | – | – | – | – | half-life ([4]; Table 2C, macrocycles): 0.217 h; half-life ([5]; Table 2C, macrocycles): 0.0333 h
